Measured values from patent US20260256742A1, “ANDROGEN RECEPTOR ANTAGONISTS FOR THE TREATMENT OF PATIENTS WITH BIOCHEMICAL RECURRENCE OF HORMONE SENSITIVE PROSTATE CANCER” (BAYER CONSUMER CARE AG, priority 2023, published 2026).
“Also recorded” adds a separate entry of the source. Read-outs that look alike come from different tables or passages of the source.

Key:
[1] = molecular target: T1, breast cancer resistance protein (BCRP) (Homo sapiens, UniProt Q9UNQ0); details: cited from earlier work
T1 sequence (Q9UNQ0 1-655): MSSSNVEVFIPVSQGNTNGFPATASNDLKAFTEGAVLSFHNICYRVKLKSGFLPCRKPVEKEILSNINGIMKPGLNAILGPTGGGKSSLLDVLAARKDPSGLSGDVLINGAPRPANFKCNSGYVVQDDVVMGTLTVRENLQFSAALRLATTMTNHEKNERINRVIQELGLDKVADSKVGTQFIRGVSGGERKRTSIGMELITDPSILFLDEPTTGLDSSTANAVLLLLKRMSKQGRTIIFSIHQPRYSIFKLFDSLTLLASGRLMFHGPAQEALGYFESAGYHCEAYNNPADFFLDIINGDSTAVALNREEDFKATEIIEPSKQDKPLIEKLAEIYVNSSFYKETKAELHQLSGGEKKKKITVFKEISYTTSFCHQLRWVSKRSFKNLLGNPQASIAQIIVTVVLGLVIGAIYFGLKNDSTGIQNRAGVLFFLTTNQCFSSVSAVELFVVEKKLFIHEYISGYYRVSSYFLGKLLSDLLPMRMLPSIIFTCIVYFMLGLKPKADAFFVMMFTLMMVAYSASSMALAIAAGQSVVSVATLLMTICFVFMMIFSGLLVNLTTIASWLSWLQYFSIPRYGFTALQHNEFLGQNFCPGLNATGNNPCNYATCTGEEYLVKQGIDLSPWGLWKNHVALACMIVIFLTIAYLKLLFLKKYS

[2] = test system: AR; details: cited from earlier work
[3] = rat, in vivo
[4] = all investigated species including man; cited from earlier work
[5] = molecular target: T2, organic anion transporter (OAT)3 (Homo sapiens, UniProt Q8TCC7); details: in vitro; cited from earlier work
T2 sequence (Q8TCC7 1-542): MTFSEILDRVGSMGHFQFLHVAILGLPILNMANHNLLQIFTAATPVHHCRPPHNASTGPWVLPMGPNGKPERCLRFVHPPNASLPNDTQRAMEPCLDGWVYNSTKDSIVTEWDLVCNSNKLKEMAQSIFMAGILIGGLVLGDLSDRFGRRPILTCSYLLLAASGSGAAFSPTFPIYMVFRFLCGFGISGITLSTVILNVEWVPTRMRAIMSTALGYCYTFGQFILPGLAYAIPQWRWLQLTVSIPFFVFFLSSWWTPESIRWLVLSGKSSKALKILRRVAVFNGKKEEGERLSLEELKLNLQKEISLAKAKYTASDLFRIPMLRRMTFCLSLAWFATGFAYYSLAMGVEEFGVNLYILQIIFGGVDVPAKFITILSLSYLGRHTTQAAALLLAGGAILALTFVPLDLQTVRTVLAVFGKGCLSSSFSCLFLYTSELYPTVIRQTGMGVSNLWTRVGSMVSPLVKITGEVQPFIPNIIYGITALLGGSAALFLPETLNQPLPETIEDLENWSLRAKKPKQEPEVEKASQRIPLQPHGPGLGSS

[6] = molecular target: P-gp (Homo sapiens, UniProt P08183); details: in vitro; cited from earlier work
Chain of P-gp (P08183 whole entry): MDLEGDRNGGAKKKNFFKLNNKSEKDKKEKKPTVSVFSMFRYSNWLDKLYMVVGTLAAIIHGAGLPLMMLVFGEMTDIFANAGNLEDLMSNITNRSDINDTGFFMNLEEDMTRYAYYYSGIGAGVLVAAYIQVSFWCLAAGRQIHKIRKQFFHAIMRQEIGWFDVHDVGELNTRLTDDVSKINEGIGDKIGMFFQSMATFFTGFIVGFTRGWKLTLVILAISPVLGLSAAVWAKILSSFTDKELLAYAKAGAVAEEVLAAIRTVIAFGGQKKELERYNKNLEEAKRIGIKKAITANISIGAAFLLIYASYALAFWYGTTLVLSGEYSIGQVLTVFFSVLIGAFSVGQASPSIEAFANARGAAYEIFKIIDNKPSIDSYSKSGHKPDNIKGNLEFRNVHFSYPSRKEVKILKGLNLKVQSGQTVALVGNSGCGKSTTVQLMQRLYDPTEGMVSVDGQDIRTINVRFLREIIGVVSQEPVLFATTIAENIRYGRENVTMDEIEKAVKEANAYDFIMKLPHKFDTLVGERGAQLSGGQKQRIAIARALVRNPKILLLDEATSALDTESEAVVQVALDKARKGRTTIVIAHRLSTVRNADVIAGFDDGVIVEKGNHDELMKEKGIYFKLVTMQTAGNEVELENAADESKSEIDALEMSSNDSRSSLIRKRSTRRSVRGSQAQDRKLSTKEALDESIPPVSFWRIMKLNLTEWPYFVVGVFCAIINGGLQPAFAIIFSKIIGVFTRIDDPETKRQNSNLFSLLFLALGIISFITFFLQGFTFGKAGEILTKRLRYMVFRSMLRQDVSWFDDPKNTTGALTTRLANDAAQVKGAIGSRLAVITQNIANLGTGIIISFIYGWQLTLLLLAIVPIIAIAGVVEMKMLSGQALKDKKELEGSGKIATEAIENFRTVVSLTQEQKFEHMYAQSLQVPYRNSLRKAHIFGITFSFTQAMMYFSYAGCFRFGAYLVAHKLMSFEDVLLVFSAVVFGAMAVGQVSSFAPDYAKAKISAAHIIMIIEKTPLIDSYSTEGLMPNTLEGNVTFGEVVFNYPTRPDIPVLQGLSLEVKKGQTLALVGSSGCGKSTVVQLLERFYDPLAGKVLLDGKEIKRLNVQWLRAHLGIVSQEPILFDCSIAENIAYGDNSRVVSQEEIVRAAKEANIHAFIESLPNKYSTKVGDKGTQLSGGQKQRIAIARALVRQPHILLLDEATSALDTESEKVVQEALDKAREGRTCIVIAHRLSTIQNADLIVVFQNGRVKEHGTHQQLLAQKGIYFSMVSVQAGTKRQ

[7] = molecular target: P-glycoprotein (P-gp) (Homo sapiens, UniProt P08183); details: cited from earlier work
Chain of P-glycoprotein (P-gp) (P08183 whole entry): as above

[8] = transgenic mouse carcinogenicity study; format: in vivo, 001178-T (hemizygous) RasH 2 mice; details: male and female RasH 2 mice, up to 500 mg/kg/dose BID, at least 26 weeks
[9] = test system: human prostate cancer xenograft models; details: cited from earlier work
[10] = test system: nine CYP isoforms; details: in vitro; cited from earlier work
[11] = cited from earlier work
[12] = test system: CYP2B6; details: in vitro; cited from earlier work
[13] = molecular target: T3, BCRP (Homo sapiens, UniProt Q9UNQ0); details: in vitro; cited from earlier work
T3 sequence (Q9UNQ0 1-655): T1 sequence (Q9UNQ0 1-655)

[14] = dog, in vivo
[15] = molecular target: T4, OATP1B3 (Homo sapiens, UniProt Q9NPD5); details: in vitro; cited from earlier work
T4 sequence (Q9NPD5 1-702): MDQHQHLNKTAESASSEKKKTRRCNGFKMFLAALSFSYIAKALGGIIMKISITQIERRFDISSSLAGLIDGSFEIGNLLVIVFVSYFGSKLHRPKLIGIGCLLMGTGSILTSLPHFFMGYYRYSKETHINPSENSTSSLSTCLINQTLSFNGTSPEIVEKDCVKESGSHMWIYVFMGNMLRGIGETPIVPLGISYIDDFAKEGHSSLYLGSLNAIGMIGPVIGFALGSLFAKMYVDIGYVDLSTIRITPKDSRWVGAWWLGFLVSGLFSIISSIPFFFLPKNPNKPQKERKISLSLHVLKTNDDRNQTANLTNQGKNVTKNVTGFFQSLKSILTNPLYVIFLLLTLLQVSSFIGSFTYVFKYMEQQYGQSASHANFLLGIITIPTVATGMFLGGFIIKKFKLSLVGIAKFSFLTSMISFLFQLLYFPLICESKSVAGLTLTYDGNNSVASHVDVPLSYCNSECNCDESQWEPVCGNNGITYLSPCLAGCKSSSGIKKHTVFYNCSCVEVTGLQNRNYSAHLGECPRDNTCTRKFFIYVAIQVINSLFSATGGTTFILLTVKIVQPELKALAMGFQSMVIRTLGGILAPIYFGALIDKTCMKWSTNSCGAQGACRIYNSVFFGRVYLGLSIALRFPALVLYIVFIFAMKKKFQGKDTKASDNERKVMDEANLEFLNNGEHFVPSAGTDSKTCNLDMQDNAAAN

[16] = test system: CYP1A2; details: in vitro; cited from earlier work

SMILES: CC(O)c1cc(C(=O)N[C@@H](C)Cn2ccc(-c3ccc(C#N)c(Cl)c3)n2)[nH]n1 (some centres unmarked) [Darolutamide]
- substrate for BCRP [1]: substrate
- binding affinity to the AR [2]: greater affinity than bicalutamide; also recorded: high affinity
- additional changes to reproductive tissues [3]: minimal increase in vacuolation of the pituitary gland, atrophy and secretory reduction in seminal vesicles and mammary glands
- deaths during the treatment period [3]: No deaths occurred
- other adverse effects [3]: No other adverse effects were observed
- reversibility of changes in the male reproductive organs [3]: reversed or partially resolved
- major metabolites observed in plasma [4]: Only one major metabolite, keto-darolutamide
- inhibition of OAT3-mediated transport [5]: observed
- inhibition of P-gp-mediated transport [6]: observed
- substrate for P-gp [7]: substrate
- carcinogenic potential [8]: no carcinogenic potential
- tumor regression ([9]; non-castrate hormone-sensitive and bicalutamide-resistant human prostate cancer xenograft models): partial or complete tumor regression
- prostate tumor progression ([9]; several cell line- and patient derived models): inhibits prostate tumor progression
- inhibition of enzymatic activity of nine CYP isoforms [10]: not inhibited or slightly inhibited
- effect of co-administration on CYP3A4/P-gp substrates ([11]; Phase I): no effect or only minor effects
- increase of rosuvastatin exposure with darolutamide ([11]; because of BCRP and probably also OATPB1/OATPB3 inhibition): 5.2 fold
- increase of darolutamide exposure ([11]; co-administered itraconazole, Phase I): 1.75 fold
- decrease of darolutamide exposure ([11]; with rifampicin, Phase I): 72%
- induction of CYP2B6 activity [12]: no relevant induction
- inhibition of BCRP-mediated transport [13]: observed
- additional changes to reproductive tissues [14]: testicular hypospermia, seminiferous tubule dilatation and degeneration
- deaths during the treatment period [14]: No deaths occurred
- other adverse effects [14]: No other adverse effects were observed
- reversibility of changes in the male reproductive organs [14]: reversed or partially resolved
- inhibition of OATP1B3-mediated transport [15]: observed
- induction of CYP1A2 activity [16]: no relevant induction
